In the supplement of paper PMC10307832:

Legend:
Experiment in all cases: relative viability (nuclei count vs DMSO), 5 days (fraction); higher = more cells survive
[1] = compound: Nc1ccccc1NC(=O)c1ccc(CNC(=O)OCc2cccnc2)cc1 [Entinostat] + CS(=O)(=O)CCNCc1ccc(-c2ccc3ncnc(Nc4ccc(OCc5cccc(F)c5)c(Cl)c4)c3c2)o1 [Lapatinib] (partner 2 µM)
Outline: (§1)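 For relative viability, nuclei counts in treated wells were divided by those in vehicle wells. Lung cancer cell lines had been pin-tool dosed in 1536-well plates the day after seeding and cultured for 5 days, then fixed and stained in one step (final 0.05% Triton X-100, 1% formaldehyde, 1 ug/ml Hoechst) and imaged at 4×. Doses were one drug alone or a fixed anchor-drug dose plus five library-drug doses (not always all listed) in √10 steps, and values are duplicate-plate medians.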

[2] = compound: C1COCCN1C2=NC(=NC3=C2OC4=C3C=CC=N4)C5=CC(=CC=C5)NC(=O)C6=CN=C(C=C6)N + Nc1ncn([C@H]2C[C@H](O)[C@@H](CO)O2)c(=O)n1 [Decitabine] (partner 2 µM)
Outline: as §1

[3] = compound: C1COCCN1C2=NC(=NC3=C2OC4=C3C=CC=N4)C5=CC(=CC=C5)NC(=O)C6=CN=C(C=C6)N + N=C(N)NC(=N)NCCc1ccccc1 [Phenformin] (partner 250 µM)
Outline: as §1

[4] = compound: CN1CCC(CNc2ccc3ncc(-c4cccc(OC(F)(F)F)c4)n3n2)CC1 [SGI-1776] + Cc1nc(NC(=O)N2CCC[C@H]2C(N)=O)sc1-c1ccnc(C(C)(C)C(F)(F)F)c1 [Alpelisib] (partner 2 µM)
Outline: as §1

Cell Line | relative viability ([1]; first compound 0.02 µM) | relative viability ([1]; first compound 0.06325 µM) | relative viability ([1]; first compound 0.2 µM) | relative viability ([1]; first compound 0.6325 µM) | relative viability ([1]; first compound 2 µM) | relative viability ([2]; first compound 0.02 µM) | relative viability ([2]; first compound 0.06325 µM) | relative viability ([2]; first compound 0.2 µM) | relative viability ([2]; first compound 0.6325 µM) | relative viability ([2]; first compound 2 µM) | relative viability ([3]; first compound 0.02 µM) | relative viability ([3]; first compound 0.06325 µM) | relative viability ([3]; first compound 0.2 µM) | relative viability ([3]; first compound 0.6325 µM) | relative viability ([3]; first compound 2 µM) | relative viability ([4]; first compound 0.08 µM) | relative viability ([4]; first compound 0.8 µM) | relative viability ([4]; first compound 2.53 µM) | relative viability ([4]; first compound 8 µM)
NCI-H2347 | 1.05 | 0.983 | 0.784 | 0.502 | 0.369 | 0.603 | 0.657 | 0.651 | 0.755 | 0.575 | 0.356 | 0.369 | 0.308 | 0.449 | 0.277 | 1.1 | 1.07 | 1.1 | 1.01
ABC-1 | 1.43 | 1.38 | 1.56 | 1.38 | 1.21 | 0.929 | 1.07 | 0.98 | 1.23 | 1.08 | 0.225 | 0.242 | 0.241 | 0.235 | 0.207 | 1.12 | 0.977 | 1.06 | 0.948
201T | 1.02 | 1.03 | 0.959 | 0.937 | 0.665 | 0.864 | 0.856 | 0.872 | 0.862 | 0.785 | 0.452 | 0.448 | 0.443 | 0.428 | 0.33 | 1.02 | 1.03 | 1.08 | 0.999
NCI-H1755 | 1.02 | 1.02 | 0.95 | 0.532 | 0.264 | 0.693 | 0.71 | 0.714 | 0.722 | 0.628 | 0.606 | 0.652 | 0.644 | 0.336 | 0.469 | 0.996 | 0.944 | 0.885 | 0.795
NCI-H596 | 1.06 | 1.13 | 1.07 | 0.81 | 0.709 | 0.951 | 0.971 | 1.15 | – | 1.07 | 0.768 | 0.916 | 0.754 | 0.598 | 0.61 | 0.529 | 0.439 | 0.357 | 0.349
NCI-H1651 | 0.816 | 0.905 | 0.925 | 0.726 | 0.217 | 0.65 | 0.643 | 0.614 | 0.66 | 0.568 | 0.333 | 0.302 | 0.315 | 0.321 | 0.182 | 0.97 | 0.957 | 0.834 | 0.752
NCI-H1437 | 0.671 | 0.399 | 0.297 | 0.183 | 0.126 | 0.574 | 0.646 | 0.615 | 0.696 | 0.458 | 0.343 | 0.351 | 0.286 | 0.225 | 0.114 | 0.867 | 0.961 | 0.99 | 0.634
NCI-H1975 | 0.812 | 0.801 | 0.669 | 0.274 | 0.189 | 0.347 | 0.396 | 0.37 | 0.381 | 0.371 | 0.394 | 0.416 | 0.388 | 0.37 | 0.243 | 0.674 | 0.598 | 0.501 | 0.322
BEN | 0.894 | 0.743 | 0.562 | 0.373 | 0.219 | 0.75 | 0.762 | 0.697 | 0.752 | 0.637 | 0.278 | 0.263 | 0.269 | 0.253 | 0.318 | 0.957 | 1.01 | 0.896 | 0.699
NCI-H322M | 0.643 | 0.612 | 0.623 | 0.647 | 0.621 | 0.708 | 0.64 | 0.695 | 0.69 | 0.64 | 0.781 | 0.786 | 0.683 | 0.735 | 0.508 | 0.883 | 0.934 | 0.928 | 0.756
SK-MES-1 | 0.511 | 0.525 | 0.494 | 0.488 | 0.395 | 0.407 | 0.491 | 0.408 | 0.643 | 0.356 | 0.663 | 0.766 | 0.729 | 0.618 | 0.462 | 0.896 | 0.897 | 1.01 | 0.647
HOP-62 | 1.12 | 0.994 | 0.907 | 0.532 | 0.323 | 0.193 | 0.227 | 0.243 | 0.313 | 0.412 | 0.762 | 0.874 | 0.686 | 0.546 | 0.294 | 0.914 | 0.942 | 0.979 | 0.807
HCC-366 | 1.02 | 1.04 | 0.66 | 0.218 | 0.0452 | 0.296 | 0.395 | 0.343 | 0.373 | 0.223 | 0.63 | 0.709 | 0.644 | 0.644 | 0.573 | 0.51 | 0.335 | 0.372 | 0.189
NCI-H2405 | 1.16 | 1.42 | 1.08 | 1.04 | 0.625 | 0.671 | 0.674 | 0.763 | 0.767 | 0.694 | 0.373 | 0.41 | 0.37 | 0.353 | 0.338 | 0.865 | 0.766 | 0.739 | 0.383
NCI-H1355 | 1.03 | 0.978 | 0.798 | 0.568 | 0.513 | 0.377 | 0.374 | 0.372 | 0.43 | 0.418 | 0.449 | 0.491 | 0.461 | 0.433 | 0.434 | 0.835 | 0.97 | 0.847 | 0.66
A549 | 1 | 0.956 | 0.92 | 0.755 | 0.481 | – | 0.362 | 0.265 | 0.238 | 0.256 | – | 0.159 | 0.142 | 0.206 | 0.063 | 0.787 | 0.701 | 0.852 | 0.394
NCI-H1793 | 0.695 | 1.07 | 0.617 | 0.393 | 0.328 | 0.445 | 0.514 | 0.457 | 0.602 | 0.407 | 0.393 | 0.483 | 0.404 | 0.372 | 0.277 | 0.807 | 0.808 | 0.974 | 0.602
